Laboratory results published in patent US20170202802A1, “COMPOSITIONS, KITS AND METHODS FOR NUTRITION SUPPLEMENTATION” (Exeltis USA, Inc., priority 2016, published 2017).

Experiment: Double-blind, placebo controlled six-month study of nutritional status in pregnant and lactating women (Example 6)
Format: in vivo, human
Conditions: co-administration of docusate sodium with supplements
Protocol: A study is undertaken to evaluate the effectiveness of the compositions of the present invention in the treatment of patients. The objective of the study is to determine whether oral intake of the compositions results in an improvement of the nutritional status of patients with regard to the specific vitamins and minerals contained in the administered compositions.
A double-blind, placebo controlled study is conducted over a six-month period. A total of 120 subjects (60 pregnant women entering the second trimester of pregnancy and 60 lactating women), aged 20-35 years, are chosen for the study. An initial assessment of the nutritional status of each woman is conducted. Vitamin A and vitamin B6 are measured using high performance liquid chromatography. […] Vitamin B2 levels are determined by assessment of erythrocyte glutathione reductase activity. Vitamin B3 levels are assessed by measuring urinary excretion of N′-methylnicotinamide and its pyridone. Vitamin B9 is measured by radioimmunoassay (RIA), specifically. […] Vitamin B12 is measured by RIA using human intrinsic factor as a binder and also by measuring serum levels of vitamin B12. Vitamin C levels are measured by spectrophotometric and colorimetric methods and also by measuring serum levels of Vitamin C. Vitamin D is measured using an extraction double-antibody RIA (Dia Sorin, Inc., Stillwater, Minn.). […] Iodine levels are measured by HPLC. […]

CCCCC(CC)COC(=O)CC(C(=O)OCC(CC)CCCC)S(=O)(=O)[O-].[Na+] (stereo not shown) [docusate sodium]
constipation that can result from iron supplementation (frequency of normal bowel movements before and after receiving supplements): mitigates constipation
